Assays:
jack bean urease [1] = molecular target: T1, jack bean urease (Canavalia ensiformis, UniProt P07374); test: urease enzyme kinetics study; assay type: biochemical
jack bean urease [2] = molecular target: T1, jack bean urease; test: % urease inhibition assay and IC50; assay type: biochemical

T1 sequence (P07374 whole entry, looked up): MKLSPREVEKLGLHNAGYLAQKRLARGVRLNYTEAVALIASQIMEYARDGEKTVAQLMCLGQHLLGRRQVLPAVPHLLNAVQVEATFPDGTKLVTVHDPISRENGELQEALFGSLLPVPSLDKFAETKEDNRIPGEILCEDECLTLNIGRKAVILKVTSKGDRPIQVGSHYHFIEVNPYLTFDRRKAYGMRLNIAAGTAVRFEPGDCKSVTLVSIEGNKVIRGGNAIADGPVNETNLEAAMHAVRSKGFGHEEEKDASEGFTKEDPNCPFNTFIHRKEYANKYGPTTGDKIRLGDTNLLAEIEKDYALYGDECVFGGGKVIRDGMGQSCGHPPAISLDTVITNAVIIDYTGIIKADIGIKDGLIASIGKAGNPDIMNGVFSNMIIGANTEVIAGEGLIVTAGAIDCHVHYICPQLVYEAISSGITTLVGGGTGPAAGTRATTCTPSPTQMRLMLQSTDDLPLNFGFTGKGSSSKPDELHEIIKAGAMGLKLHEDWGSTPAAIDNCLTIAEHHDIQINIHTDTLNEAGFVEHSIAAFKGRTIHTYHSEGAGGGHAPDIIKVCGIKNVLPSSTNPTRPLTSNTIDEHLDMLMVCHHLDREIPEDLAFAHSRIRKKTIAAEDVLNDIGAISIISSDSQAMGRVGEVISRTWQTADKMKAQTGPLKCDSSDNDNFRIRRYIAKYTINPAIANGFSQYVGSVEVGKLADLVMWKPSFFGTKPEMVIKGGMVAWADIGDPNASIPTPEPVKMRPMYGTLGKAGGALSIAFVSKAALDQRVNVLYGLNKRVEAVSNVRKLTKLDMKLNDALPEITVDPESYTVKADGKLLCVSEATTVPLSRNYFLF

Which Mode of inhibition (jack bean urease [1]; Lineweaver–Burk plots, inhibitor 0–20 μM, urea 0.5–4.0 mM) does the source give for NC(N)=S [Thiourea, thiourea] here?
The Mode of inhibition was “Competitive”.

And the Ki (jack bean urease [1]; calculated from secondary replot (Lineweaver–Burk))?
Its Ki is 18.2 µM.

And the “Vmax (app)” value (jack bean urease [1]; maximum velocity of enzymatic activity at 20 μM inhibitor concentration)?
The value was 18.61 µM/min.

What about the “% inhibition” value (jack bean urease [2]; concentration not given) of the same compound?
The value was 92.3%.

What about the IC50 (jack bean urease [2]; read-out: IC50 (μM), mean ± SEM, triplicate, mean ± SEM) of the same compound?
The IC50 was 22.6 ± 0.23 µM.
